The assay concerns the target T1, WT RyR2 (Mus musculus, UniProt E9Q401).
T1 construct: expressed in transfected cells
The assay is described as follows: Time-lapse [Ca2+]ER assay (RyR2 R-CEPIA1er assay) in HEK-293 cells. Type of assay: cell-based. The settings on record: for RyR2 effect class: 25 µM in RyR2 R-CEPIA1er assay; for effect on [Ca^2+]ER (R-CEPIA1er fluorescence), in words: 25 µM, vs. 0.1 v/v% DMSO; for EC50: HEK-293 WT RyR2 R-CEPIA1er cells, range after the semicolon is not explained. As to the method: HEK-293 cells stably expressing R-CEPIA1er and WT RyR2 (generous gift from Takashi Murayama, Juntendo University School of Medicine, Tokyo) were cultured in Dulbecco's Modified Eagle medium (DMEM, Thermo Fisher Scientific, Darmstadt, Germany) supplemented with 10% fetal bovine serum (FBS, Thermo Fisher Scientific, Darmstadt, Germany), 0.9% Penicillin/Streptomycin (Merck KGaA, Darmstadt, Germany), 15ug/mL Blasticidine (Invivogen, Toulouse, France), 100 µg/mL Hygromycin (Merck KGaA, Darmstadt, Germany) and 400 µg/mL G418 (Thermo Fisher Scientific, Darmstadt, Germany) in a humidified 5% COz incubator at 37 °C. To induce the expression of WT RyR2 in the endoplasmic reticulum (ER), 2 µg/mL Doxycycline (Merck KGaA, Darmstadt, Germany) was added 24 h before experiments.
The fluorescent plate reader [Ca^2+]ER assay was performed according to the slightly modified protocol of Murayama & Kurebayashi [T. Murayama, N. Kurebayashi, Assays for Modulators of Ryanodine Receptor (RyR)/Ca(2+) Release Channel Activity for Drug Discovery for Skeletal Muscle and Heart Diseases. Curr. Protoc. […] After the cells were inducted with Doxycycline for 24 h, changes in ER calcium concentrations [Ca^2+]ER were measured on a multiwell plate reader TECAN Spark 20M at 37 °C. The 1000 × stock solutions of the test compounds were prepared in DMSO. Briefly, the culture medium was removed and 100 µl of Tyrode's solution containing 2 mM CaCl2 was added to the cells. The time courses were recorded in each well. Fluorescence was evoked by 560 nm excitation wavelength and collected in a bottom-read mode at 610 nm. Data was recorded every 10 s, exposure - 20 flashes, excitation bandwidth - 20 nm, emission bandwidth - 20 nm. 100 µl of 0 - 100 µM solution of test compound in Tyrode's solution containing 2 mM CaCh was injected in each well (speed 100 µl/s) at the 90 s time point. […] The 0.1 v/v% DMSO and 2 mM CaCh Tyrode's solution was used as a control.
The dose response curves were calculated using the software package GraphPad Prism version 8.3.1. (GraphPad Software, Inc.). All data are presented as mean ± S.D. in 3 independent experiments. Y=Bottom + (Top-Bottom)/(1+10^((LogEC50-X)*HillSlope)) was used where HillSlope describes the steepness of the curve, Top and Bottom are plateaus in the units of the Y axis.
The inventors measured changes in Ca^2+ levels in the endoplasmic reticulum (ER) of HEK-293 cells with inducible expression of wild-type RyR2 (WT RyR2) [T. Murayama, N. Kurebayashi, M. Ishigami-Yuasa, S. Mori, Y. Suzuki, R. Akima, H. Ogawa, J. Suzuki, K. Kanemaru, H. Oyamada, Y. Kiuchi, M. Iino, H. Kagechika, T. Sakurai, Efficient High-Throughput Screening by Endoplasmic Reticulum Ca(2+) Measurement to Identify Inhibitors of Ryanodine Receptor Ca(2+)-Release Channels. […] The cells additionally stably express the Ca^2+ fluorescence indicator R-CEPIA1er, which is a genetically encoded sensor protein of Ca^2+ in the ER ([Ca^2+]ER) [T. Murayama, N. Kurebayashi, Assays for Modulators of Ryanodine Receptor (RyR)/Ca(2+) Release Channel Activity for Drug Discovery for Skeletal Muscle and Heart Diseases. Curr. Protoc.
The fluorescence ratio F/F0 was calculated, where F0 - is the average fluorescence for the first 90 s, F - is the average fluorescence for the last 100 s, and normalized.

T1 sequence (E9Q401 whole entry): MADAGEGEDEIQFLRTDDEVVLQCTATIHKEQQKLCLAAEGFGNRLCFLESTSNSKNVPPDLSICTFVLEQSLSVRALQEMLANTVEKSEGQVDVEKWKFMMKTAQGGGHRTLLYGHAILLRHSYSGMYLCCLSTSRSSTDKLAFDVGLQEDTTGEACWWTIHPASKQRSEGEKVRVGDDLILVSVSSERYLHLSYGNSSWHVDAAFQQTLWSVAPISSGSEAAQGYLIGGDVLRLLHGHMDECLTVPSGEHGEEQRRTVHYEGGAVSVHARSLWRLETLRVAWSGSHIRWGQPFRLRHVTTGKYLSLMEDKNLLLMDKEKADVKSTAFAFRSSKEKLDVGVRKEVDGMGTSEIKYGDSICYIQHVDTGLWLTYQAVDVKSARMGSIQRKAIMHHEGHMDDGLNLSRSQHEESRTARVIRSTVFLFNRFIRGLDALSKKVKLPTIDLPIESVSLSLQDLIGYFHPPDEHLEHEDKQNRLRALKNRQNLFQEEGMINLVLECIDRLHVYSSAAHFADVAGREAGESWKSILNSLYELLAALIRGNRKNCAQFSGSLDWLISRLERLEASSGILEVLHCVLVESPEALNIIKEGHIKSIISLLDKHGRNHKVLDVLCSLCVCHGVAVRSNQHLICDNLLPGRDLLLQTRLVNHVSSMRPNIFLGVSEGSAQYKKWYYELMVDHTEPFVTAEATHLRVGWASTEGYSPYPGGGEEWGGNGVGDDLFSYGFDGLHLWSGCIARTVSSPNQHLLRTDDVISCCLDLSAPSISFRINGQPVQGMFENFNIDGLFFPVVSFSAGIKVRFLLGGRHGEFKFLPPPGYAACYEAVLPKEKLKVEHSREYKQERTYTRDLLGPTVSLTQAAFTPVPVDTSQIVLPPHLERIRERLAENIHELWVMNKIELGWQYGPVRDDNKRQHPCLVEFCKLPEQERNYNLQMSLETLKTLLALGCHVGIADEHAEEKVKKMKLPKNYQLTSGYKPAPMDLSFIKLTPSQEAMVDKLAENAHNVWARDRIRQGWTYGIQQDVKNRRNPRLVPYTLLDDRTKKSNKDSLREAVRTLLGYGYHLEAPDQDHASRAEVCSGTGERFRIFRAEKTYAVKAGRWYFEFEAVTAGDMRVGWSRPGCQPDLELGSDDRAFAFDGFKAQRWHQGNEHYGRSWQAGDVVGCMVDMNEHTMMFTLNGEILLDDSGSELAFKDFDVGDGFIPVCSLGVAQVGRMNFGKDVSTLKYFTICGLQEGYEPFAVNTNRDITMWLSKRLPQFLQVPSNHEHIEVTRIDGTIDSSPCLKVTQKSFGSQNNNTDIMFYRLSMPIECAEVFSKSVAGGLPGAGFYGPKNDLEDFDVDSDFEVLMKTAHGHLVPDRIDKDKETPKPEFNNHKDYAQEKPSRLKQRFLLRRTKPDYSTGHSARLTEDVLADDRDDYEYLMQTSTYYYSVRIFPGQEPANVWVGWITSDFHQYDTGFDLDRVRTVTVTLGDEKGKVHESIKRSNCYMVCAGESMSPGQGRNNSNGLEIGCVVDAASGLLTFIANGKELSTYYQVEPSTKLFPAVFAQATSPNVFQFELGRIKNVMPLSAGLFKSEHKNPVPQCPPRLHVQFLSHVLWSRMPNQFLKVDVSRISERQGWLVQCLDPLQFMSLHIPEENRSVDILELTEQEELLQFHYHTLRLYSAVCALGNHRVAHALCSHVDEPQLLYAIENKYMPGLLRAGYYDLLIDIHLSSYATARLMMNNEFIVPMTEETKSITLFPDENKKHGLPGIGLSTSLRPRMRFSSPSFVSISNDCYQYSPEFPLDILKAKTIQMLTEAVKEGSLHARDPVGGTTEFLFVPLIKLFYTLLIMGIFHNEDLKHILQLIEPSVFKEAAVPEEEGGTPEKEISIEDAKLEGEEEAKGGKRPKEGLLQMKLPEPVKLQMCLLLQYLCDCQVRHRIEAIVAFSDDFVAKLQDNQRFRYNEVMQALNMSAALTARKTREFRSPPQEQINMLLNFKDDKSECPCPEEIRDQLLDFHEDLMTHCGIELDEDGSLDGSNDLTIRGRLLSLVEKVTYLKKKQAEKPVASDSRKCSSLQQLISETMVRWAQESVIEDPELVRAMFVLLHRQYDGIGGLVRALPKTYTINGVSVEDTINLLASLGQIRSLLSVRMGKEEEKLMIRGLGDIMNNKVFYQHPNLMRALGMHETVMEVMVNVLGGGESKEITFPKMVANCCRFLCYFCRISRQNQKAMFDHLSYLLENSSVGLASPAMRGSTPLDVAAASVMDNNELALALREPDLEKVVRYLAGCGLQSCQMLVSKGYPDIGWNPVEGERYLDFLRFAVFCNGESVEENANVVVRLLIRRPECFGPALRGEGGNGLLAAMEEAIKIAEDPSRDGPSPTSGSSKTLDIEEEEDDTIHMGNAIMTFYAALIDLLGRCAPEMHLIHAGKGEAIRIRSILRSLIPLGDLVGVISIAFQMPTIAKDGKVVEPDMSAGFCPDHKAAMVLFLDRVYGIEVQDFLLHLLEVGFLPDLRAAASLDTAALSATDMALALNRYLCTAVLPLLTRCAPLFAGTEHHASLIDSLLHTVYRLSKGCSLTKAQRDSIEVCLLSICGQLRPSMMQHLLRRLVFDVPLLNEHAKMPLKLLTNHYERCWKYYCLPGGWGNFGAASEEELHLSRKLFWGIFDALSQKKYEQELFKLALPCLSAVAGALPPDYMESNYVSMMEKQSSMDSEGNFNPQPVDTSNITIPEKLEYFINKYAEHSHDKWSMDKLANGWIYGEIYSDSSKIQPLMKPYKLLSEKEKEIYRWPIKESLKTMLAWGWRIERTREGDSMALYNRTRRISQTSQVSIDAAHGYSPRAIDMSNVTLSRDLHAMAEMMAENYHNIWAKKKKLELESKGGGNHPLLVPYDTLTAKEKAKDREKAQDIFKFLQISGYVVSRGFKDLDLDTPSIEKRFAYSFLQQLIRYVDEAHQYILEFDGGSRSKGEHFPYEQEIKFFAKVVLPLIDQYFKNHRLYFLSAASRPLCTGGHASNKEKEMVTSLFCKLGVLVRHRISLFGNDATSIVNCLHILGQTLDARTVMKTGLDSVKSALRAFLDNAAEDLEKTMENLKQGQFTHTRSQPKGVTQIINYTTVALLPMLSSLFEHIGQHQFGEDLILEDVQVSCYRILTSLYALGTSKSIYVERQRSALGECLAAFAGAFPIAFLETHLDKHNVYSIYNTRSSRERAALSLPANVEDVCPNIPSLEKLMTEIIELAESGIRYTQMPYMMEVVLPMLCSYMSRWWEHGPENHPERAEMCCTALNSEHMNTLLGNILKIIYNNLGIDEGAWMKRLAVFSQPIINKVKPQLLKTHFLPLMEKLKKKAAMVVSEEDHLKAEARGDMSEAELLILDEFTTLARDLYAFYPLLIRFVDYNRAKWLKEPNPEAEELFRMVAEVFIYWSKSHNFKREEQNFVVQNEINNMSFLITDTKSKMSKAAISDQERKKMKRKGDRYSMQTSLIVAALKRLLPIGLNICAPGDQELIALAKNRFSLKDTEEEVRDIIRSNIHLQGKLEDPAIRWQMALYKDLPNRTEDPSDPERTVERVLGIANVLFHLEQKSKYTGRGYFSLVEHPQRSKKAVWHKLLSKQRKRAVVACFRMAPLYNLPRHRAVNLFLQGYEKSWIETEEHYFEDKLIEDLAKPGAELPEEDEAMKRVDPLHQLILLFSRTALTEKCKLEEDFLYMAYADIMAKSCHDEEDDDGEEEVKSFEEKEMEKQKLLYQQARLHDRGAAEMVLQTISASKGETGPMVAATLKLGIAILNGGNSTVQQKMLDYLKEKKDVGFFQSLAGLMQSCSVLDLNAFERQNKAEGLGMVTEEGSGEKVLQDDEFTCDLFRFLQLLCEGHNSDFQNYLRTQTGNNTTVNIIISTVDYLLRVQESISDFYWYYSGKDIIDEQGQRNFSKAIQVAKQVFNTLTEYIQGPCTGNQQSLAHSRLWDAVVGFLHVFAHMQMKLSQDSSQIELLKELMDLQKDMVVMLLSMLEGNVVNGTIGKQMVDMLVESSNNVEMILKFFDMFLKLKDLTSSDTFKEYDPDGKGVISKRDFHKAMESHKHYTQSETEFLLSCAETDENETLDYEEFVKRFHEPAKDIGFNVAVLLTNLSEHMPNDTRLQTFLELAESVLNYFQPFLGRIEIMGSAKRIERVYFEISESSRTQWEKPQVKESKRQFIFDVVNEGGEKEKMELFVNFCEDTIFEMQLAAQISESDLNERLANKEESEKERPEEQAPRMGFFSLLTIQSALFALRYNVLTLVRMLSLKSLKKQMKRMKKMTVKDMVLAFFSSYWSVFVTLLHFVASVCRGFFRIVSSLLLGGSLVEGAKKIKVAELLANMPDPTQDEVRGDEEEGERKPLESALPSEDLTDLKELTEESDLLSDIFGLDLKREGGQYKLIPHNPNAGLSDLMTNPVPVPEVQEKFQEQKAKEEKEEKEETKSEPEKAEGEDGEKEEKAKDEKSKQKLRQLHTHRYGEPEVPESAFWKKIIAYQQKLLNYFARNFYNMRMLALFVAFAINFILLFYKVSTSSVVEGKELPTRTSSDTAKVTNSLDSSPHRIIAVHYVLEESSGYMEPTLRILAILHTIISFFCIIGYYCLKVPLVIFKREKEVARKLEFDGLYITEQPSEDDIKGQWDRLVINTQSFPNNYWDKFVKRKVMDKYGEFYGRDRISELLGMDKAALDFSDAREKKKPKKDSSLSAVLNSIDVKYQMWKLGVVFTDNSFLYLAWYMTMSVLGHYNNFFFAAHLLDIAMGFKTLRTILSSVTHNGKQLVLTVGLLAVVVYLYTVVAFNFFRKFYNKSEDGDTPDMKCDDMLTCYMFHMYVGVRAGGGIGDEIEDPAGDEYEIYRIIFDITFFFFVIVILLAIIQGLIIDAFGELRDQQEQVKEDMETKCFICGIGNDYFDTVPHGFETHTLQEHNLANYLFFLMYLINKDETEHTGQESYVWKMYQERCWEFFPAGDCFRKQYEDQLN

In the case of `COc1ccc2c(c1)CN(CCCCC1(O)CC1)CCS2` [Compound 13d, 1-(4-(7-methoxy-2,3-dihydrobenzo[1,4-f]thiazepin-4(5H)-yl)butyl)cyclopropan-1-ol], the RyR2 effect class result is on record as “-” and the “effect on [Ca^2+]ER (R-CEPIA1er fluorescence), in words” value (“effect on [Ca^2+]ER” for short) is “no significant RyR2-stabilizing effect”.

`COc1ccc2c(c1)CN(CCCCN(CCCCC1(O)CC1)CCCCC1(O)CC1)CCS2` [Compound 14a, 1,1'-(((4-(7-Methoxy-2,3-dihydrobenzo[1,4-f]thiazepin-4(5H)-yl)butyl)azanediyl)bis(butane-4,1-diyl))bis(cyclopropan-1-ol)]: the RyR2 effect class entry is given as “+++”.

In general, EC50 refers to the concentration that produces a half-maximal response. `COc1ccc(OCCCNCCCCC2(O)CC2)cc1` [Compound 13b, 1-(4-((3-(4-methoxyphenoxy)propyl)amino)butyl)cyclopropan-1-ol]: the RyR2 effect class entry is reported as “+++” and the midpoint of the response, the EC50, lay at 81.5 nM. With `COc1ccc2c(c1)CN(C(=O)C(=O)O)CCS2` [Compound S36, reference compound], the RyR2 effect class result is recorded as “+++” and the “effect on [Ca^2+]ER” value is recorded as “increase in R-CEPIA1er fluorescence”. As for `COc1ccc(SCCCN(CCCCC2(O)CC2)CCCCC2(O)CC2)cc1` [Compound 14c, 1,1'-(((3-((4-Methoxyphenyl)thio)propyl)azanediyl)bis(butane-4,1-diyl))bis(cyclopropan-1-ol)], the RyR2 effect class result is reported as “+” and a half-maximal effect (EC50) was put at 18.6 nM. The corresponding values for `COc1ccc(SCCCNCCCCC2(O)CC2)cc1` [Compound 13c, 1-(4-((3-((4-Methoxyphenyl)thio)propyl)amino)butyl)cyclopropan-1-ol] are “++” and 10.2 nM. Turning to `COc1ccc2c(c1)CN(Cc1ccc(C(=O)O)cc1)CCS2` [ARM210, reference compound], the RyR2 effect class result is recorded as “++” and the “effect on [Ca^2+]ER” value is “significantly increased [Ca^2+]ER”. On to `COc1ccc2c(c1)CN(CCCCNCCCCC1(O)CC1)CCS2` [Compound 13a, 1-(4-((4-(7-Methoxy-2,3-dihydrobenzo[1,4-f]-thiazepin-4(5H)-yl)butyl)amino)butyl)cyclopropan-1-ol], for which the RyR2 effect class result is given as “++”.

The values above are taken from patent EP4548971A1, “1,4-BENZOTHIAZEPINES AND RELATED COMPOUNDS WITH CYCLOPROPANOL GROUPS AS MULTI-TARGETED DRUGS” (Georg-August-Universität Göttingen Stiftung Öffentlichen …, priority 2023, dated 2025).
